Experimental data reported in ChEMBL document CHEMBL1201862, “PubChem BioAssay data set” (2004).
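Five concentrations, 48 hours, 96-well plates. The concentration for 50% growth inhibition is given as GI50.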 Activity calls are given as the source filed them. Rule as the data show it: active = GI50 up to about 1.1 µM and inactive = higher.

What was measured:
Assay in all cases: NCI anticancer screen, dose series, 48 h
OVCAR-5 = tested on: OVCAR-5
T47D = tested on: T47D
UACC-62 = tested on: UACC-62
HCC 2998 = tested on: HCC 2998
CAKI-1 = tested on: CAKI-1
ACHN = tested on: ACHN
786-0 = tested on: 786-0
SR = tested on: SR
A498 = tested on: A498
BT-549 = tested on: BT-549
HT-29 = tested on: HT-29
MDA-N = tested on: MDA-N
NCI/ADR-RES = tested on: NCI/ADR-RES
OVCAR-4 = tested on: OVCAR-4
OVCAR-3 = tested on: OVCAR-3
UACC-257 = tested on: UACC-257
NCI-H460 = tested on: NCI-H460
RPMI-8226 = tested on: RPMI-8226
DU-145 = tested on: DU-145
PC-3 = tested on: PC-3

Measured: GI50

O=C1/C(=C\c2cccc(Oc3ccccc3)c2)SC(c2ccccc2)N1c1ccccc1 (configuration not stated)
inactive: OVCAR-5 > 100 µM | T47D 52.5 µM | UACC-62 43.3 µM | HCC 2998 > 100 µM | CAKI-1 > 100 µM | ACHN > 100 µM | 786-0 > 100 µM | SR 11.9 µM | A498 > 100 µM | BT-549 > 100 µM | HT-29 26.4 µM | MDA-N 30.1 µM | NCI/ADR-RES 75.3 µM | OVCAR-4 75.2 µM | OVCAR-3 95.7 µM | UACC-257 52.1 µM | NCI-H460 > 100 µM | RPMI-8226 14.8 µM | DU-145 > 100 µM

CCCCC(=O)N/S(=N/C(=O)c1ccccc1)C(Cl)(Cl)Cl (configuration not stated)
inactive: OVCAR-5 > 100 µM | T47D > 100 µM | UACC-62 > 100 µM | HCC 2998 > 100 µM | ACHN > 100 µM | 786-0 > 100 µM | SR > 100 µM | PC-3 > 100 µM | BT-549 > 100 µM | HT-29 > 100 µM | MDA-N > 100 µM | NCI/ADR-RES > 100 µM | OVCAR-4 > 100 µM | OVCAR-3 > 100 µM | UACC-257 > 100 µM | NCI-H460 > 100 µM | RPMI-8226 > 100 µM | DU-145 > 100 µM

CC(=O)n1[nH]c(=O)n(-c2ccc(Cl)cc2)c1=O
inactive: OVCAR-5 > 100 µM | T47D > 100 µM | UACC-62 > 100 µM | HCC 2998 > 100 µM | CAKI-1 > 100 µM | ACHN > 100 µM | 786-0 > 100 µM | SR > 100 µM | PC-3 > 100 µM | BT-549 > 100 µM | HT-29 > 100 µM | MDA-N > 100 µM | NCI/ADR-RES > 100 µM | OVCAR-4 > 100 µM | OVCAR-3 > 100 µM | UACC-257 > 100 µM | NCI-H460 > 100 µM | RPMI-8226 > 100 µM | DU-145 > 100 µM

O=P(c1ccccc1)(c1ccccc1)N1O[C@@H](c2ccccc2)C=C[C@H]1c1ccccc1
inactive: OVCAR-5 16 µM | T47D 4.61 µM | UACC-62 6.17 µM | HCC 2998 13.7 µM | CAKI-1 5.66 µM | ACHN 10.2 µM | 786-0 10.4 µM | SR 4.46 µM | PC-3 2.96 µM | BT-549 17.5 µM | HT-29 9.75 µM | MDA-N 3.31 µM | NCI/ADR-RES 7.13 µM | OVCAR-4 2.57 µM | OVCAR-3 11.6 µM | UACC-257 11.9 µM | NCI-H460 5.53 µM | RPMI-8226 5.79 µM | DU-145 13 µM

COc1cc(O)c2c(=O)c3c(C)cccc3n(C)c2c1
inactive: OVCAR-5 > 10 µM | T47D > 10 µM | UACC-62 > 10 µM | HCC 2998 > 10 µM | CAKI-1 > 10 µM | ACHN > 10 µM | 786-0 > 10 µM | A498 > 10 µM | PC-3 > 10 µM | BT-549 > 10 µM | HT-29 > 10 µM | MDA-N > 10 µM | NCI/ADR-RES > 10 µM | OVCAR-4 > 10 µM | OVCAR-3 > 10 µM | UACC-257 > 10 µM | NCI-H460 > 10 µM | RPMI-8226 > 10 µM | DU-145 > 10 µM

N#Cc1c(-c2ccccc2)c(/N=N/c2ccc(Cl)cc2)c(=O)n2c1[nH]c1ccccc12
inactive: OVCAR-5 > 100 µM | T47D 97.1 µM | HCC 2998 52.6 µM | CAKI-1 24.3 µM | ACHN > 100 µM | 786-0 23.6 µM | A498 > 100 µM | PC-3 > 100 µM | BT-549 > 100 µM | MDA-N > 100 µM | NCI/ADR-RES 92.9 µM | OVCAR-4 15.7 µM | OVCAR-3 > 100 µM | UACC-257 > 100 µM | NCI-H460 35.5 µM | RPMI-8226 39.9 µM

CCN(CC)CCCn1c(=O)c2cccnc2n2c3c(=O)n(C)c(=O)n(C)c3nc12
inactive: OVCAR-5 > 100 µM | T47D > 100 µM | UACC-62 > 100 µM | HCC 2998 > 100 µM | CAKI-1 > 100 µM | ACHN > 100 µM | 786-0 > 100 µM | SR > 100 µM | PC-3 > 100 µM | BT-549 > 100 µM | HT-29 > 100 µM | MDA-N > 100 µM | NCI/ADR-RES > 100 µM | OVCAR-4 > 100 µM | OVCAR-3 > 100 µM | UACC-257 > 100 µM | NCI-H460 84.7 µM | RPMI-8226 > 100 µM | DU-145 > 100 µM

CN(C)/C=N/c1cc(=O)n(C)c(=O)n1C
inactive: OVCAR-5 > 100 µM | T47D > 100 µM | UACC-62 > 100 µM | HCC 2998 > 100 µM | CAKI-1 > 100 µM | ACHN > 100 µM | 786-0 > 100 µM | A498 > 100 µM | PC-3 > 100 µM | BT-549 > 100 µM | HT-29 > 100 µM | MDA-N > 100 µM | NCI/ADR-RES > 100 µM | OVCAR-4 > 100 µM | OVCAR-3 > 100 µM | UACC-257 > 100 µM | NCI-H460 > 100 µM | RPMI-8226 > 100 µM | DU-145 > 100 µM

S=C(N/N=C\C=N/NC(=S)N1CCCCCC1)N1CCCCCC1
inactive: OVCAR-5 > 100 µM | T47D 1.44 µM | UACC-62 21.2 µM | HCC 2998 > 64.9 µM | CAKI-1 > 26.7 µM | ACHN 8.59 µM | 786-0 14.3 µM | A498 57.3 µM | PC-3 12.2 µM | BT-549 > 100 µM | HT-29 7.28 µM | MDA-N > 68.1 µM | NCI/ADR-RES 15.6 µM | OVCAR-3 13.8 µM | UACC-257 > 61.9 µM | NCI-H460 3.93 µM | RPMI-8226 > 100 µM | DU-145 9.31 µM

CN(NC(=O)c1cccs1)C1=NCCN1
inactive: OVCAR-5 > 100 µM | T47D > 100 µM | UACC-62 > 100 µM | HCC 2998 > 100 µM | ACHN > 100 µM | 786-0 > 100 µM | SR > 100 µM | A498 > 100 µM | PC-3 > 100 µM | BT-549 > 100 µM | HT-29 > 100 µM | MDA-N > 100 µM | NCI/ADR-RES > 100 µM | OVCAR-4 > 100 µM | OVCAR-3 > 100 µM | UACC-257 > 100 µM | NCI-H460 > 100 µM | RPMI-8226 > 100 µM

c1ccc(/N=C(/Nc2ccccc2)N2CCCC2)cc1
inactive: OVCAR-5 > 100 µM | T47D > 100 µM | UACC-62 > 100 µM | CAKI-1 > 100 µM | ACHN > 100 µM | 786-0 > 100 µM | SR > 100 µM | PC-3 79.1 µM | BT-549 > 100 µM | HT-29 > 100 µM | MDA-N > 100 µM | NCI/ADR-RES > 100 µM | OVCAR-4 > 100 µM | OVCAR-3 > 100 µM | UACC-257 > 100 µM | NCI-H460 > 100 µM | RPMI-8226 > 100 µM | DU-145 > 100 µM
